Data published in patent US11008290B2, “Halogenated quinoline derivatives as antimicrobial agents” (University of Florida Research Foundation, Incorporated, priority 2015, dated 2021).
In brackets after ≈: the same amount, converted by molar mass. Where two headings read alike, the source gives them in different places.

Experiments:
[1] = tested on: MRSA-2 planktonic cells and biofilms; assay: Calgary Biofilm Device (CBD) MBC/MBEC determination; format: cell-based, Staphylococcus aureus; conditions: for MBC: Staphylococcus aureus, MRSA
Experimental: (§1) Biofilm eradication experiments were performed using the Calgary Biofilm Device to determine MBC/MBEC values for various compounds of interest (Innovotech, product code: 19111). The Calgary device (96-well plate with lid containing 96 total pegs to establish biofilms; 1 peg/well) was inoculated with 125 μL of a mid-log phase culture diluted 1,000-fold in tryptic soy broth with 0.5% glucose (TSBG) to establish bacterial biofilms after incubation at 37° C. for 24 hours. The lid of the Calgary device was then removed, washed and transferred to another 96-well plate containing 2-fold serial dilutions of the test compounds (the “challenge plate”). The total volume of media with compound in each well in the challenge plate was 150 μL. The Calgary device was then incubated at 37° C. for 24 hours. The lid was then removed from the challenge plate and MBC/MBEC values were determined using different final assays. […] The MBC values were determined as the concentration giving a lack of visible bacterial growth (e.g., turbidity). For determination of MBEC values, the Calgary device lid (with attached pegs/treated biofilms) was transferred to a new 96-well plate containing 150 μL of fresh TSBG media in each well and incubated for 24 hours at 37° C. to allow viable biofilms to grow and disperse resulting in turbidity after the incubation period. […] In select experiments, treated pegs from the Calgary device were removed from lead biofilm eradicators after final incubation, sonicated for 30 minutes in PBS and plated out to determine biofilm cell killing (e.g., colony forming unit per milliliter, CFU/mL).

[2] = tested on: VRE (ATCC 700221) planktonic cells and biofilms; assay: as above; format: cell-based, Enterococcus faecium; conditions: Enterococcus
Experimental: as §1

[3] = tested on: MRSE (ATCC 35984) planktonic cells and biofilms; assay: as above; format: cell-based, Staphylococcus epidermidis; conditions: for MBC: Staphylococcus epidermidis, planktonic killing, CBD, first value of cell
Experimental: as §1

human red blood cells = assay: Hemolysis assay; format: cell-based
Experimental: Freshly drawn human red blood cells (hRBC with ethylenediaminetetraacetic acid (EDTA) as an anticoagulant) were washed with Tris-buffered saline (0.01M Tris-base, 0.155M sodium chloride (NaCl), pH 7.2) and centrifuged for 5 minutes at 3500 rpm. The washing was repeated three times with the buffer. In 96-well plate, the test compounds were added to the buffer. […] The plate was then incubated for 1 hour at 37° C. After incubation, the plate is centrifuged for 5 minutes at 3500 rpm. Then 80 μL of the supernatant were transferred to another 96-well plate and the Optical Density (OD) was read at 405 nm. […] The percent of hemolysis was calculated as (OD405 of the compound-OD405 DMSO)/(OD405 Triton X-OD405 buffer).

[4] = tested on: vancomycin-resistant Enterococcus faecium (VRE, ATCC 700221); assay: Minimum inhibitory concentration (MIC) susceptibility assay, broth microdilution; format: cell-based; conditions: read-out: VRE MIC
Experimental: (§2) The minimum inhibitory concentration (MIC) for each compound was determined by the broth microdilution method as recommended by the Clinical and Laboratory Standards Institute (CLSI). In a 96-well plate, eleven two-fold serial dilutions of each compound were made in a final volume of 100 μL Luria Broth. Each well was inoculated with ˜10^5 bacterial cells at the initial time of incubation, prepared from a fresh log phase culture (OD600 of 0.5 to 1.0 depending on bacterial strain). […] The concentration range tested for each compound during this study was 0.10 to 100 μM. DMSO served as the vehicle and negative control in each microdilution MIC assay. DMSO was serially diluted with a top concentration of 1% v/v. Bacterial strains used: methicillin-resistant Staphylococcus aureus-2 (MRSA-2; clinical isolate from Shands Hospital in Gainesville, Fla.), methicillin-resistant Staphylococcus epidermidis (MRSE; ATCC 35984), vancomycin-resistant Enterococcus faecium (VRE, ATCC 700221).

[5] = tested on: methicillin-resistant Staphylococcus aureus-2 (MRSA-2; clinical isolate); assay: as above; format: cell-based
Experimental: as §2

[6] = tested on: methicillin-resistant Staphylococcus epidermidis (MRSE; ATCC 35984); assay: as above; format: cell-based; conditions: for MIC: read-out: MRSE MIC
Experimental: as §2

MRSA-2 = assay: Mechanistic investigations with metal(II)-cations (MIC assay with 200 μM metal salt); format: cell-based, Staphylococcus aureus; conditions: for MIC: Staphylococcus aureus
Experimental: as §2

[7] = Table 3, planktonic killing, CBD, first value of MBC/MBEC cell, read-out: MRSA-2 MBC
[8] = Table 3, planktonic killing, CBD, first value of cell, footnote c = lowest concentration tested, read-out: VRE MBC
[9] = Staphylococcus, MRSA, Table 3, at least three independent experiments, read-out: MRSA-2 MIC
[10] = Staphylococcus epidermidis, Table 3
[11] = Table 2, planktonic killing, CBD, first value of MBC/MBEC cell, read-out: MRSA-2 Clinical Isolate MBC
[12] = Table 2, read-out: MRSE ATCC 35984 MBC
[13] = Staphylococcus, MRSA, Table 2, 2 to 6 independent experiments, read-out: MRSA-2 MIC
[14] = Staphylococcus epidermidis, Table 2, ATCC 35984
[15] = Table 2, planktonic killing, CBD, first value of cell, read-out: VRE ATCC 700221 MBC
[16] = Staphylococcus epidermidis, 18 h, Table 2, ATCC 35984
[17] = MRSA-2, change in antibacterial activity according to MIC values
[18] = Staphylococcus, MRSA, read-out: MIC

Compound	MBC [1, 7] [µM]	MBC [2, 8] [µM]	MBC ([3]; Table 3, read-out: MRSE MBC) [µM]	% Haemolysis at 200 μM (human red blood cells; human, 1 h, pH 7.2) [%]	MIC ([4]; Table 3) [µM]	MIC [5, 9] [µM]	MIC [6, 10] [µM]	other results
CCc1ccc2c(Br)cc(Br)c(O)c2n1 [A-HQ-1]	93.8 (≈ 31 µg/mL)	1.5 (≈ 0.497 µg/mL)	31.3 (≈ 10.4 µg/mL)	≤1	0.78 (≈ 0.258 µg/mL)	0.78 (≈ 0.258 µg/mL)	0.39 (≈ 0.129 µg/mL)	–
N#CC(C#N)=NNc1cccc(Cl)c1 [CCCP, carbonyl cyanide m-chlorophenyl hydrazone, reference compound]	31.3 (≈ 6.4 µg/mL)	–	31.3 (≈ 6.4 µg/mL)	–	–	–	–	MBC [1, 11]: 31.3 µM (≈ 6.4 µg/mL); MBC [3, 12]: 31.3 µM (≈ 6.4 µg/mL); % Haemolysis at 200 μM (human red blood cells; Table 2, human red blood cells, 1 hour at 37° C.): 3.5%; % Haemolysis at 200 μM (human red blood cells; Table 3, human red blood cells): 3.5%; MIC [5, 13]: 3.13 µM (≈ 0.64 µg/mL); MIC ([5]; Table 3, at least three independent experiments, read-out: MRSA-2 MIC): 3.13 µM (≈ 0.64 µg/mL); MIC [6, 14]: 6.25 µM (≈ 1.28 µg/mL); MIC ([6]; Table 3): 6.25 µM (≈ 1.28 µg/mL)
O=C(O)CN(CCN(CC(=O)O)CC(=O)O)CC(=O)O [EDTA, ethylenediaminetetraacetic acid, reference compound]	2000 (≈ 584 µg/mL)	–	1000 (≈ 292 µg/mL)	–	–	–	–	% Haemolysis at 200 μM (human red blood cells; Table 3, human red blood cells): 3.0%
CCCCNCc1ccc2c(Br)cc(Br)c(O)c2n1 [HQ-2]	–	–	–	–	–	–	–	MBC ([1]; read-out: MRSA-2 Clinical Isolate MBC): 46.9 µM (≈ 18.2 µg/mL); MBC ([2]; read-out: VRE ATCC 700221 MBC): 15.6 µM (≈ 6.05 µg/mL); MIC (MRSA-2; MRSA, read-out: MIC w/Cu^2+): 3.13 µM; MIC (MRSA-2; MRSA, read-out: MIC w/Fe^2+): 3.13 µM; MIC (MRSA-2; MRSA, read-out: MIC w/Zn^2+): 1.17 µM; MIC [4]: 3.13 µM (≈ 1.21 µg/mL); MIC ([5]; Staphylococcus, MRSA): 3.13 µM (≈ 1.21 µg/mL); MIC ([5]; Staphylococcus, MRSA, read-out: MRSA-2 MIC): 6.25 µM (≈ 2.43 µg/mL); MIC ([6]; Staphylococcus epidermidis): 3.13 µM (≈ 1.21 µg/mL)
Oc1c(Br)cc(Br)c2ccc(CNc3cccc(Cl)c3)nc12 [HQ-4]	–	–	–	–	–	–	–	MBC [1, 11]: 62.5 µM (≈ 27.7 µg/mL); MRSA-2 MBEC ([1]; Table 3, biofilm eradication, CBD, second value of MBC/MBEC cell): equipotent biofilm eradication activities; MBC [2, 15]: 1.5 µM (≈ 0.664 µg/mL); MBEC:MBC ratio ([3]; MRSE 35984, CBD): ~1; MBC [3, 12]: 9.38 µM (≈ 4.15 µg/mL); MIC ([4]; 18 h, Table 2, ATCC 700221): 0.39 to 0.78 µM (≈ 0.173 to 0.345 µg/mL); MIC ([4]; Table 2, ATCC 700221): 0.78 µM (≈ 0.345 µg/mL); MIC [5, 13]: 1.17 µM (≈ 0.518 µg/mL); MIC [6, 16]: 0.15 to 0.3 µM (≈ 0.0664 to 0.133 µg/mL); MIC [6, 14]: 0.3 µM (≈ 0.133 µg/mL)
Oc1c(Br)cc(Br)c2ccc(CNc3cc(Cl)cc(Cl)c3)nc12 [HQ-5]	–	–	–	–	–	–	–	MBC [1, 11]: 62.5 µM (≈ 29.8 µg/mL); MBC [2, 15]: 2 µM (≈ 0.954 µg/mL); MBC [3, 12]: 1.5 µM (≈ 0.715 µg/mL); MIC ([4]; 18 h, Table 2, ATCC 700221): 0.39 to 0.78 µM (≈ 0.186 to 0.372 µg/mL); MIC ([4]; Table 2, ATCC 700221): 0.39 µM (≈ 0.186 µg/mL); MIC [5, 13]: 1.56 µM (≈ 0.744 µg/mL); MIC [6, 16]: 0.15 to 0.3 µM (≈ 0.0715 to 0.143 µg/mL); MIC [6, 14]: 0.3 µM (≈ 0.143 µg/mL)
Oc1c(Br)cc(Br)c2ccc(CNc3ccc(Br)cc3)nc12 [HQ-6]	–	–	–	–	–	–	–	MBEC:MBC ratio ([1]; MRSA-2, CBD): equipotent killing efficiencies; MBC [1, 11]: 125 µM (≈ 60.9 µg/mL); MBC [2, 15]: 3.9 µM (≈ 1.9 µg/mL); Fold Δ (MIC w/Mg^2+) (MRSA-2; [17]): insignificant changes in antibacterial activities; Fold Δ (MIC w/Zn^2+) (MRSA-2; [17]): −6 fold; MIC (MRSA-2; MRSA-2, 200 μM ammonium iron (II) sulfate hexahydrate, read-out: MIC w/Fe^2+): 9.38 µM; MIC (MRSA-2; MRSA-2, 200 μM copper (II) sulfate, read-out: MIC w/Cu^2+): 1.13 µM; MIC (MRSA-2; MRSA-2, 200 μM magnesium (II) sulfate, read-out: MIC w/Mg^2+): 3.13 µM; MIC (MRSA-2; MRSA-2, 200 μM zinc (II) chloride, read-out: MIC w/Zn^2+): 0.78 µM; MBC [3, 12]: 5.9 µM (≈ 2.87 µg/mL); MIC ([4]; 18 h, Table 2, ATCC 700221): 0.39 to 0.78 µM (≈ 0.19 to 0.38 µg/mL); MIC ([4]; Table 2, ATCC 700221): 0.78 µM (≈ 0.38 µg/mL); MIC [5, 13]: 3.13 µM (≈ 1.52 µg/mL); MIC [5, 18]: 4.69 µM (≈ 2.28 µg/mL); fold more potent antibacterial activities than vancomycin ([6]; MRSE, MIC, same assays): 5 fold; MIC [6, 16]: 0.15 to 0.3 µM (≈ 0.073 to 0.146 µg/mL); MIC [6, 14]: 0.15 µM (≈ 0.073 µg/mL)
NC(=O)c1cnccn1 [Pyrazinamide, reference compound]	> 2000	–	–	≤1	–	–	–	–
CCCCCNCc1ccc2c(Br)cc(Br)c(O)c2n1 [RA-HQ-2]	31.3 (≈ 12.6 µg/mL)	15.6 (≈ 6.27 µg/mL)	23.5 (≈ 9.45 µg/mL)	87.9	3.13 (≈ 1.26 µg/mL)	2.35 (≈ 0.945 µg/mL)	1.56 (≈ 0.627 µg/mL)	MIC [5, 18]: 3.13 µM (≈ 1.26 µg/mL)
Oc1c(Br)cc(Br)c2ccc(CNc3ccc(Cl)cc3)nc12 [RA-HQ-13]	31.3 (≈ 13.9 µg/mL)	1.5 (≈ 0.664 µg/mL)	31.3 (≈ 13.9 µg/mL)	17.6	0.78 (≈ 0.345 µg/mL)	0.78 (≈ 0.345 µg/mL)	0.3 (≈ 0.133 µg/mL)	–
Oc1c(Br)cc(Br)c2ccc(CNc3ccc(I)cc3)nc12 [RA-HQ-14]	250 (≈ 133 µg/mL)	46.9 (≈ 25 µg/mL)	46.9 (≈ 25 µg/mL)	11.0	4.69 (≈ 2.5 µg/mL)	4.69 (≈ 2.5 µg/mL)	0.78 (≈ 0.417 µg/mL)	–
Oc1c(Br)cc(Br)c2ccc(CNc3cccc(Br)c3)nc12 [RA-HQ-15]	188 (≈ 91.6 µg/mL)	7.8 (≈ 3.8 µg/mL)	31.3 (≈ 15.2 µg/mL)	37.3	0.78 (≈ 0.38 µg/mL)	1.56 (≈ 0.76 µg/mL)	0.2 (≈ 0.0974 µg/mL)	–
Oc1c(Br)cc(Br)c2ccc(CNc3cc(Br)ccc3Br)nc12 [RA-HQ-17]	750 (≈ 424 µg/mL)	31.3 (≈ 17.7 µg/mL)	188 (≈ 106 µg/mL)	7.4	1.56 (≈ 0.883 µg/mL)	3.13 (≈ 1.77 µg/mL)	0.59 (≈ 0.334 µg/mL)	–
Oc1c(I)cc(I)c2ccc(CNc3ccccc3)nc12 [RA-HQ-22]	> 1000	31.3 (≈ 15.7 µg/mL)	250 (≈ 126 µg/mL)	3.0	9.38 (≈ 4.71 µg/mL)	> 100	4.69 (≈ 2.35 µg/mL)	–
